SMILES strings stand for the structures. Read-outs that look alike come from different tables or passages of the source. Where only a bound is given, the exact number is not on record here.

The target of one data set is T1, 17-Beta HSD II Enzyme (Homo sapiens, UniProt P37059).
T1 construct: made in house; host or cells: insect cells (baculovirus)
T1 sequence (P37059 1-387): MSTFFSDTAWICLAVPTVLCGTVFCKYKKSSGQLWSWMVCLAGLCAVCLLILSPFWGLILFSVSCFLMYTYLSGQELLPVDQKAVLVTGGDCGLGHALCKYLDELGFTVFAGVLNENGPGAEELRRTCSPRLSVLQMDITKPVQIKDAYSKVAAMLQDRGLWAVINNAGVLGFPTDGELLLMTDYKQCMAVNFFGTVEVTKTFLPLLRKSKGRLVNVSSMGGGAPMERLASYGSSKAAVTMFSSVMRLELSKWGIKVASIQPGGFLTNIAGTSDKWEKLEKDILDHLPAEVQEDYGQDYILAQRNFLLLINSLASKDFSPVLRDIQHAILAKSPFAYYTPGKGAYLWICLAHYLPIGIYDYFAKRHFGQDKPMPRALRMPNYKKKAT
The experiment in a line: Primary assay: inhibition of 17-Beta HSD II enzyme (estradiol/NAD, PMS:MTS colorimetric readout at 490 nm). The class given is biochemical. The conditions noted are these: Table 7, baculovirus-expressed recombinant HSD II, estradiol substrate. How it is done:
HSD II protein purification: The method for purification of baculovirus-expressed HSD II was standardized as follows. The insect cell pellet containing recombinant HSD II was lysed in 2.5 volumes of lysis buffer (40 mM Tris, pH 7.5, 1 mM EDTA, 2 mM DTT, 10 uM NAD) containing 500 uM AEBSF, 10 ug/ml aprotinin, 1 uM pepstatin A, and 100 uM leupeptin. The pellet was nutated for 30 min in this buffer. Subsequently, the pellet was homogenized with 15 strokes using a glass and teflon potter. The volume was doubled with a 2× sucrose/NaCl solution (500 mM sucrose, 300 mM NaCl in lysis buffer). After centrifugation at 10,000×g for 30 min, the supernatant was decanted and stored at −20° C. The pellet was resuspended in 2.5 volumes of lysis buffer containing 250 mM sucrose and 150 mM NaCl. Homogenization was repeated (15 strokes) and the suspension was centrifuged again and the decanted supernatant was stored at −20° C. The pellet was resuspended with 2 times the original pellet volume in lysis buffer containing 150 mM NaCl and 1% Triton X-100. The suspension was nutated for 20 min and then homogenized with 5 strokes. Subsequently, the suspension was centrifuged at 30,000×g for 1 h and supernatant was decanted and poured into a chromatographic column. Sephadex G-25 (fine) was added in small amounts, allowing approximately 15 min after each addition for complete swelling. Sephadex addition was continued until all liquid was absorbed. The protein was eluted with 1 void volume of lysis buffer and eluate monitored at 280 nm optical density. The chromatographic procedure was repeated and an equal volume of glycerol was added to the final eluate.
Primary assay: After titration, the HSD II prep, generated with the standard protocol, was diluted to the appropriate concentration (generally 1/15 dilution). 55 μl of assay buffer (50 mM Hepes, pH 8.0) was added to all wells of a 96 well plate. 5 μl of 5% DMSO were added to wells A1-C1, A2-C2, F1-H1, and F2-H2. A 10 μl aliquot of a 10 mM solution in DMSO of each compound was diluted in 190 μl of assay buffer. The plate with these compound dilutions was then mixed for 15 min on a shaker and a 5 μl aliquot from each well was added to the […]. This was followed by 10 μl of HSD II enzyme ( 1/15 dilution)/estradiol mix in assay buffer containing 1% Triton X-100. The estradiol […] from a 20 mM estradiol DMSO stock solution, which was diluted 1/20 (50 μl/ml) in 50 mM Hepes buffer containing 1% Triton X-100. All wells, except F1-H1 and F2-H2, also received 10 μl of 25 mg/ml NAD (SIGMA) in 100 mM Hepes, pH 9. The blank wells F1-H1 and F2-H2 received 10 μl of NAD buffer. 20 μl of PMS:MTS solution (100 μl PMS into 1800 μl MTS, Promega) was added to all wells. The plate was covered with aluminum foil and incubated at room temperature for 1.5 h. The plate was analyzed at 490 nm on a Hewlett Pachard 8453 spectrophotometer and results were calculated.

The mark [1] stands for this setting: read-out: IC50 values ≧2 μM and <10 μM.

`CN1C(=O)C[C@H](c2ccccc2)[C@@H]1[C@H](O)c1ccc(-c2ccc[n+]([O-])c2)s1` [Example 26, (4R,5R)-5-{(S)-hydroxy[5-(1-oxido-3-pyridinyl)-2-thienyl]methyl}-1-methyl-4-phenyl 2-pyrrolidinone] came in with a melting point of 138 to 140 °C. For the same compound, the half-inhibitory concentration (IC50) at 17-Beta HSD II Enzyme was less than 500 nM.
`CN1C(=O)C[C@H](c2ccccc2)[C@@H]1[C@H](O)c1cccc(-c2cccc([N+](=O)[O-])c2)c1` (racemic) [Example 106] displayed a melting point of 183 °C. The 50% inhibitory concentration (IC50) at 17-Beta HSD II Enzyme (setting [1]) lay in the range of 2000 to 10000 nM.
`CN1C(=O)CC(c2ccccc2)C1C(O)c1ccc(-c2ccc(C#N)cc2)s1` (stereo not drawn) [Example 80] showed a melting point of 146 °C. For the same compound, the IC50 on 17-Beta HSD II Enzyme is less than 500 nM.
The corresponding values for `CN1C(=O)C[C@H](c2ccccc2F)[C@@H]1[C@H](O)c1ccc(-c2cccs2)s1` [Example 155] are 200 to 202 °C and less than 500 nM.
The corresponding values for `CN1C(=O)CC(c2ccccc2F)C1C(O)c1ccc(-c2ccc(F)cc2)s1` (stereo not drawn) [Example 84] are 178 °C and less than 500 nM.
The corresponding values for `CN1C(=O)C[C@H](c2ccccc2)[C@@H]1[C@H](O)c1ccc(-c2ccccc2)s1` [Example 145] are 216 °C (dec.) and less than 500 nM.
In the case of `CN1C(=O)CC(c2ccccc2)C1C(O)c1ccc(S(=O)(=O)c2ccccc2)s1` (stereo not drawn) [Example 70], the melting point is 247 °C. The IC50 at 17-Beta HSD II Enzyme is less than 500 nM.
For the compound `COc1cccc(C2CC(=O)N(C)C2C(O)c2ccc(-c3ccc(F)cc3)s2)c1` (stereo not drawn) [Example 87], the melting point was 172 °C. The half-maximal inhibitory concentration (IC50) on 17-Beta HSD II Enzyme (setting [1]) is 2000 to 10000 nM.
The corresponding values for `CSc1ccc(-c2ccc([C@@H](O)[C@H]3[C@@H](c4ccccc4)CC(=O)N3C)o2)cc1` (racemic) [Example 116] are 183 °C and 2000 to 10000 nM.
Compound `CN1C(=O)CC(c2ccccc2)C1C(O)c1ccc(-c2cccc(N)c2)s1` (stereo not drawn) [Example 67] had a melting point of 190 °C. Besides, the half-maximal inhibitory concentration (IC50) at 17-Beta HSD II Enzyme was less than 500 nM.
The corresponding values for `C#Cc1ccc([C@@H](O)[C@H]2[C@@H](c3ccccc3)CC(=O)N2C)s1` (relative stereo) [Example 23, (±)-(4R*,5R*)-5-[(1S*)(5-ethynyl(2-thienyl))hydroxymethyl]-1-methyl-4-phenylpyrrolidin-2-one] are 187 °C and less than 500 nM.
`CN1C(=O)CC(c2ccccc2)C1C(O)C#Cc1cccc(N)c1` (racemic) [Example 133] showed a melting point of 205 to 207 °C. At 17-Beta HSD II Enzyme, the IC50 is less than 500 nM.
The corresponding values for `CN1C(=O)CC(c2ccccc2)C1C(O)c1ccc(-c2ccccn2)s1` (stereo not drawn) [Example 50] are 234 °C (dec.) and less than 500 nM.
The corresponding values for `CN1C(=O)CC(c2ccccc2)C1C(O)c1ccc(-c2cccc([N+](=O)[O-])c2)s1` (racemic) [Example 44] are 150 °C and less than 500 nM.
On to `CN1C(=O)C[C@H](c2ccccc2)[C@@H]1[C@H](OCc1ccccc1)c1cccs1` [Example 140], for which the melting point was 129 to 130 °C. In addition, the IC50 on 17-Beta HSD II Enzyme (setting [1]) is 2000 to 10000 nM.
`CN1C(=O)CC(c2ccccc2)C1C(O)c1ccc(CCc2ccc(F)cc2)s1` (stereo not drawn) [Example 57] gave a melting point of 123 to 125 °C. In addition, the half-maximal inhibitory concentration (IC50) on 17-Beta HSD II Enzyme is less than 500 nM.
`COc1ccc(S(=O)(=O)c2ccc([C@@H](O)[C@H]3[C@@H](c4ccccc4)CC(=O)N3C)s2)cc1` (racemic) [Example 58]: the melting point lay in the range of 203 to 205 °C. For the same compound, the IC50 at 17-Beta HSD II Enzyme is less than 500 nM.
`CN1C(=O)CC(c2ccccc2)C1C(O)c1ccc(-c2ccc(-c3ccccc3)c(F)c2)s1` (stereo not drawn) [Example 47] gave a melting point of 170 °C. Further, the IC50 at 17-Beta HSD II Enzyme (setting [1]) lay in the range of 2000 to 10000 nM.
The corresponding values for `CN1C(=O)CC(c2ccccc2)C1C(O)c1ccc(-c2ccccc2)o1` (stereo not drawn) [Example 117] are 184 °C and 2000 to 10000 nM.
Consider `CN1C(=O)C[C@H](c2ccccc2)[C@@H]1[C@H](O)Cc1cccc(Cl)c1` (relative stereo) [Example 9, (±)-(4R*,5R*)-5-[(1R*)-2-(3-chlorophenyl)-1-hydroxyethyl]-1-methyl-4-phenylpyrrolidin-2-one], for which the melting point fell in the range of 50 to 52 °C. Besides, the 50% inhibitory concentration (IC50) on 17-Beta HSD II Enzyme (setting [1]) fell in the range of 2000 to 10000 nM.
`Cc1ccc(C)n1-c1cccc(C#C[C@@H](O)[C@H]2[C@@H](c3ccccc3)CC(=O)N2C)c1` (racemic) [Example 131]: the melting point was 175 to 176 °C. At 17-Beta HSD II Enzyme, the IC50 was less than 500 nM.

The IC50 is the concentration that gives 50% inhibition. One may read the melting point as the temperature, or range, at which the solid turns liquid.

The values above are taken from patent US6784167B2, “17-beta-hydroxysteroid dehydrogenase-II inhibitors” (Bayer Pharmaceuticals Corporation, priority 2000, dated 2004).
